Data as given in patent US10023592B2, “Bromodomain inhibitors” (Celgene Quanticel Research, Inc., priority 2013, dated 2018).

Tests used:
[1] = test system: NCI-H460, human non-small cell lung cancer cells; experiment: Cell-MTS proliferation assay, NCI-H460; type: cell-based; settings: Homo sapiens, 168 hr
How it was run: (§1)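 Seven-day colorimetric MTS assay; compound at 11 concentrations from 100 μM down to 2.0 nM final, added a day after plating. IC50 from OD490 normalised to DMSO controls.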

[2] = test system: HL-60, human proleukemia cells; experiment: Cell-MTS proliferation assay, HL-60; type: cell-based; settings: Homo sapiens, 168 hr
How it was run: as §1

BRD4(BD1) = BRD4(BD1) (Homo sapiens (Human), UniProt O60885); experiment: In vitro enzyme inhibition assay (BRD4 AlphaScreen); type: binding
How it was run: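 AlphaScreen proximity readout, using streptavidin donor and Ni-chelate acceptor beads at 5 μg/mL final, monitors biotin-H4 tetraacetylated peptide interaction with purified His-tagged BRD4.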

[3] = test system: Raji, human Burkitts lymphoma cells; experiment: Cell-MTS proliferation assay, Raji; type: cell-based; settings: Homo sapiens, 168 hr
How it was run: as §1

[4] = Cell-MTS proliferation, NCI-H460 cells
[5] = Cell-MTS proliferation, HL-60 cells
[6] = in vitro enzyme inhibition assay
[7] = Cell-MTS proliferation, Raji cells
[8] = NCI-H460, Cell-MTS proliferation

IC50 [1, 4] [µM]	IC50 [2, 5] [µM]	IC50 (BRD4(BD1); [6]) [µM]	IC50 [3, 7] [µM]	IC50 [1, 8] [µM]	IC50 ([2]; HL-60, Cell-MTS proliferation) [µM]	IC50 ([3]; Raji, Cell-MTS proliferation) [µM]	IC50 ([1]; NCI-H460, Cell-MTS, class symbols A/B/C) [µM]	IC50 ([2]; HL-60, Cell-MTS, class symbols A/B/C) [µM]	IC50 (BRD4(BD1); class symbols A/B/C) [µM]	IC50 ([3]; Raji, Cell-MTS, class symbols A/B/C) [µM]	Compound
> 5	0.5 to 5	< 0.5	0.5 to 5	–	–	–	–	–	–	–	COCC1COc2cc(S(C)(=O)=O)cc(-c3cn(C)c(=O)c4ccccc34)c2O1 (stereo not drawn) [Example 497, 4-[3-(methoxymethyl)-7-methylsulfonyl-2,3-dihydro-1,4-benzodioxin-5-yl]-2-methylisoquinolin-1-one]
–	–	< 0.5	–	> 5	< 0.5	< 0.5	–	–	–	–	Cn1cc(-c2cc(NS(C)(=O)=O)ccc2Oc2ccc(F)cc2F)cc(C2CC2)c1=O [Example 279, N-[3-(5-cyclopropyl-1-methyl-6-oxopyridin-3-yl)-4-(2,4-difluorophenoxy)phenyl]methanesulfonamide]
–	–	< 0.5	–	0.5 to 5	< 0.5	< 0.5	–	–	–	–	CCS(=O)(=O)c1ccc(OCC2CC2)c(-c2cn(C)c(=O)c3oc(C)cc23)c1 [Example 270, 4-[2-(cyclopropylmethoxy)-5-ethylsulfonylphenyl]-2,6-dimethylfuro[2,3-c]pyridine-7-one]
–	–	< 0.5	–	> 5	0.5 to 5	0.5 to 5	–	–	–	–	Cn1cc(-c2nc(CS(C)(=O)=O)ncc2OCC2CC2)c2ccccc2c1=O [Example 143, 4-[5-(cyclopropylmethoxy)-2-(methylsulfonylmethyl)pyrimidin-4-yl]-2-methylisoquinolin-1-one]
–	–	< 0.5	–	> 5	< 0.5	< 0.5	–	–	–	–	CCCOc1ccc(S(=O)(=O)CC)cc1-c1cn(C)c(=O)c2cnc(-c3cnn(C)c3)nc12 [Example 225, 8-(5-ethylsulfonyl-2-propoxyphenyl)-6-methyl-2-(1-methylpyrazol-4-yl)pyrido[4,3-d]pyrimidin-5-one]
–	–	0.5 to 5	–	> 5	0.5 to 5	> 5	–	–	–	–	CCCc1ccc(S(C)(=O)=O)cc1-c1ccc(=O)n(C)c1 [Example 313, 1-methyl-5-(5-methylsulfonyl-2-propylphenyl)pyridin-2-one]
> 5	< 0.5	< 0.5	< 0.5	–	–	–	–	–	–	–	Cc1cc(-c2cn(CS(C)(=O)=O)c(=O)cc2Oc2ccc(F)cc2F)cn(C)c1=O [Example 385, 5-[4-(2,4-difluorophenoxy)-1-(methylsulfonylmethyl)-6-oxopyridin-3-yl]-1,3-dimethylpyridin-2-one]
–	–	–	–	–	–	–	> 5	< 0.5	0.5 to 5	0.5 to 5	CCS(=O)(=O)Nc1cccc(-c2cn(C)c(=O)c3ccc(-c4ccccn4)cc23)c1 [Example 87, N-[3-(2-methyl-1-oxo-6-pyridin-2-ylisoquinolin-4-yl)phenyl]ethanesulfonamide]
–	–	< 0.5	–	> 5	< 0.5	< 0.5	–	–	–	–	CCS(=O)(=O)Nc1ncc(OCC2CC2)c(-c2cn(C)c(=O)c3cc(F)ccc23)n1 [Example 160, N-[5-(cyclopropylmethoxy)-4-(7-fluoro-2-methyl-1-oxoisoquinolin-4-yl)pyrimidin-2-yl]ethanesulfonamide]
–	–	< 0.5	–	> 5	< 0.5	< 0.5	–	–	–	–	Cn1cc(-c2cc(CS(C)(=O)=O)ccc2Oc2ccc(F)cc2F)n2cncc2c1=O [Example 372, 5-[2-(2,4-difluorophenoxy)-5-(methylsulfonylmethyl)phenyl]-7-methylimidazo[1,5-a]pyrazin-8-one]
> 5	< 0.5	< 0.5	< 0.5	–	–	–	–	–	–	–	CCS(=O)(=O)c1ccc(OC2CCCC2)c(-c2cn(C)c(=O)c3cncn23)c1 [Example 374, 5-(2-cyclopentyloxy-5-ethylsulfonylphenyl)-7-methylimidazo[1,5-a]pyrazin-8-one]
–	–	< 0.5	–	> 5	0.5 to 5	0.5 to 5	–	–	–	–	CCS(=O)(=O)Nc1ncc(Oc2ccc(F)cc2F)c(-c2cn(C)c(=O)c3c2CCCC3)n1 [Example 173, N-[5-(2,4-difluorophenoxy)-4-(2-methyl-1-oxo-5,6,7,8-tetrahydroisoquinolin-4-yl)pyrimidin-2-yl]ethanesulfonamide]
> 5	< 0.5	< 0.5	< 0.5	–	–	–	–	–	–	–	Cc1cc(-c2cc(CS(C)(=O)=O)ccc2Oc2ccc(F)cc2F)cn(C)c1=O [Example 455, 5-[2-(2,4-difluorophenoxy)-5-(methylsulfonylmethyl)phenyl]-1,3-dimethylpyridin-2-one]
–	–	< 0.5	–	> 5	< 0.5	< 0.5	–	–	–	–	CCS(=O)(=O)Nc1ncc(Oc2ccc(F)cc2F)c(-c2cc(C)c(=O)n(CC3CC3)c2)n1 [Example 249, N-[4-[1-(cyclopropylmethyl)-5-methyl-6-oxopyridin-3-yl]-5-(2,4-difluorophenoxy)pyrimidin-2-yl]ethanesulfonamide]
–	–	< 0.5	–	> 5	< 0.5	0.5 to 5	–	–	–	–	Cc1nc2c(=O)n(C)cc(-c3cc(S(C)(=O)=O)ccc3OCC3CC3)c2o1 [Example 238, 7-[2-(cyclopropylmethoxy)-5-methylsulfonylphenyl]-2,5-dimethyl-[1,3]oxazolo[4,5-c]pyridin-4-one]
–	–	< 0.5	–	> 5	< 0.5	0.5 to 5	–	–	–	–	COc1ccc(S(=O)(=O)CCO)cc1-c1cn(C)c(=O)c2ccc(-c3cnn(C)c3)cc12 [Example 208, 4-[5-(2-hydroxyethylsulfonyl)-2-methoxyphenyl]-2-methyl-6-(1-methylpyrazol-4-yl)isoquinolin-1-one]
–	–	< 0.5	–	> 5	< 0.5	< 0.5	–	–	–	–	CCS(=O)(=O)c1cc(-c2cn(C)c(=O)c3ccccc23)c(OCC2CC2)cn1 [Example 207, 4-[5-(cyclopropylmethoxy)-2-ethylsulfonylpyridin-4-yl]-2-methylisoquinolin-1-one]
> 5	< 0.5	< 0.5	< 0.5	–	–	–	–	–	–	–	Cc1cc(-c2cc(NS(C)(=O)=O)ccc2OC2CCOC2)cn(C)c1=O (stereo not drawn) [Example 444, N-[3-(1,5-dimethyl-6-oxopyridin-3-yl)-4-(oxolan-3-yloxy)phenyl] methanesulfonamide]
> 5	< 0.5	< 0.5	< 0.5	–	–	–	–	–	–	–	CCS(=O)(=O)Cc1ccc(OCC(F)(F)F)c(-c2cn(C)c(=O)c3ccccc23)c1 [Example 487, 4-[5-(ethylsulfonylmethyl)-2-(2,2,2-trifluoroethoxy)phenyl]-2-methylisoquinolin-1-one]
0.5 to 5	< 0.5	< 0.5	< 0.5	–	–	–	–	–	–	–	Cn1cc(-c2cc(CS(C)(=O)=O)ccc2Oc2ccc(F)cc2F)ccc1=O [Example 470, 5-[2-(2,4-difluorophenoxy)-5-(methylsulfonylmethyl)phenyl]-1-methylpyridin-2-one]
–	–	< 0.5	–	> 5	0.5 to 5	0.5 to 5	–	–	–	–	Cn1cc(-c2nc(NS(C)(=O)=O)ncc2Oc2ccc(F)cc2F)c2c(c1=O)CCCC2 [Example 172, N-[5-(2,4-difluorophenoxy)-4-(2-methyl-1-oxo-5,6,7,8-tetrahydroisoquinolin-4-yl)pyrimidin-2-yl]methanesulfonamide]
